Values quoted from earlier work, collected in patent US20120238559A1, “NOVEL COMPOUNDS” (GLAXO GROUP LIMITED, priority 2009, published 2012).

Legend:
neutrophils [1] = tested on: neutrophils
Class I PI3-kinases = details: each of the four Class I PI3-kinases; read-out: IC50 against each of the various Class I PI3-kinases
neutrophils [2] = details: treatment of neutrophils; Thelen et al. 1994

SMILES | neutrophil migration and superoxide release (neutrophils [1]) | IC50 (Class I PI3-kinases) | fMLP-induced respiratory burst response (neutrophils [2])
O=c1cc(N2CCOCC2)oc2c(-c3ccccc3)cccc12 [LY294002] | block neutrophil migration and superoxide release | – | –
COC[C@H]1OC(=O)c2coc3c2[C@@]1(C)C1=C(C3=O)[C@@H]2CCC(=O)[C@@]2(C)C[C@H]1OC(C)=O [wortmannin] | block neutrophil migration and superoxide release | 1 to 10 nM | prevents the fMLP-induced respiratory burst response
